Laboratory results as given in paper PMC10854695, “Using Flavonoid Substitution Status to Predict Anticancer Effects in Human Melanoma Cancers: An In Vitro Study” (Cancers, 2024).

Tests used:
[1] = tested on: C32 melanoma cells; experiment: Neutral red uptake (NRU) assay, C32
[2] = tested on: A375 melanoma cells; experiment: Neutral red uptake (NRU) assay, A375; settings: read-out: IC50, cytotoxic activity, NRU assay
Procedure: (§1) The NRU (neutral red uptake) was conducted as previously described by Szoka and co-workers, with some modifications [22]. Briefly, melanoma cells and fibroblasts were seeded in microplates at the density of 1 × 10^4 cells per well and allowed to adhere for 24 h. […] After treatment, the culture medium was replaced with a neutral red solution (40 µg/mL). An additional 2 h of incubation was performed. The neutral red solution was then removed and the neutral red accumulated in the cells was dissolved in 50% EtOH with 1% of the glacial acetic acid. The absorbance was estimated at 540 nm and IC50 values were calculated using GraphPad Prism software (GraphPad Software, San Diego, CA, USA).

[3] = in vitro; settings: human
[4] = tested on: C32 melanoma cells; experiment: MTT cell viability assay, C32; settings: Homo sapiens, read-out: IC50, cytotoxic activity, MTT test;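 further: MTT added for 2 h, cells lysed in DMSO, absorbance read at 570 nm, compound vehicle kept at or below 0.1% DMSO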
[5] = Neutral red uptake (NRU) assay, normal cells; settings: human, human skin fibroblasts (CCD25Sk)
Procedure: as §1

[6] = tested on: A375 melanoma cells; experiment: MTT cell viability assay, A375; settings: Homo sapiens;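 further: Read-out is formazan absorbance at 570 nm after 2 h with MTT, with compounds in at most 0.1% v/v DMSO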
[7] = MTT cell viability assay, normal cells; settings: human, human skin fibroblasts (CCD25Sk);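 further: fibroblasts served as non-cancer comparison line for selectivity versus melanoma cells, MTT reduction read as absorbance at 570 nm after 2 h dye exposure, compounds in ≤0.1% DMSO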
[8] = tested on: caspases, PARP, phospho-RSK in C32 cells; experiment: Western immunoblot of apoptosis mediators and RSK, C32; format: cell-based, human; settings: C32, 48 h, Western blot; on cleaved PARP and caspase-9: test concentration or dose not given here
[9] = tested on: human skin fibroblasts (CCD25Sk); experiment: [3H]-thymidine incorporation (DNA biosynthesis), normal cells; format: cell-based; settings: read-out: IC50, effect on DNA biosynthesis ([3H]-thymidine incorporation)
Procedure: (§2) The inhibition of DNA biosynthesis was evaluated using [^3H]-thymidine incorporation into the DNA of melanoma cells (C32, A375) and fibroblasts treated with the studied compounds [21]. The cells were briefly seeded in 24-well plates (1 × 10^5 cells per well) and allowed to adhere for 24 h. […] After incubation for 24, 48, and 72 h, the cells were rinsed three times with PBS. Then, cells were lysed in 1 mL of 0.1 M NaOH containing 1% SDS. The cell lysate was moved into scintillation vials containing scintillation liquid, and the radioactivity of the samples was measured using a liquid scintillation analyzer (Perkin-Elmer, Waltham, MA, USA).

[10] = tested on: C32 melanoma cells; experiment: [3H]-thymidine incorporation (DNA biosynthesis), C32; format: cell-based, human; settings: read-out: IC50, effect on DNA biosynthesis ([3H]-thymidine incorporation)
Procedure: as §2

[11] = tested on: caspases, PARP, phospho-RSK in A375 cells; experiment: Western immunoblot of apoptosis mediators and RSK, A375; format: cell-based, human; settings: A375, 48 h, Western blot
Procedure: Floating cells were harvested by centrifugation of the conditioned media (300× g, 5 min). Cell pellet and adherent cells were lysed in a cell lysis buffer supplemented with inhibitors of proteases and phosphatases. The cell lysate was sonicated (2 × 10 s) on ice with an ultrasonic homogenizer (UP200S, Hielscher Ultrasonics GmbH, Teltow, Germany) and centrifuged for 10 min at 10,000× g. The supernatant was collected and stored in a freezer at −70 °C. Protein concentrations in the cell supernatants were determined using a Lowry assay. Obtained proteins were dissolved on SDS-PAGE gels (7.5%, 10%, or 12%) using the Mini-Protean Tetra system. The proteins were transferred to nitrocellulose membranes using the Mini Trans-Blot Cell wet blotting system. The 5% skim milk was used to block membranes. Then, membranes were probed for 24 h at 4 °C with the following antibodies: anti-phospho-RSK, anti-RSK, anti-PARP, anti-cleaved PARP, anti-caspase-8, anti-caspase-9, anti-caspase-7, anti-caspase-3, and anti-actin. Membranes were incubated with an ECL-HRP (enhanced chemiluminescence-horseradish peroxidase) substrate, and the signal was spotted using the BioSpectrum Imaging System and VisionWorks LS software 7.0 (Ultra-Violet Products, Ltd., San Gabriel, CA, USA). The intensity of the bands was quantified by densitometric analysis using UVIBand software, version 15.08d (Uvitec Ltd., Cambridge, UK).

[12] = tested on: A375 melanoma cells; experiment: [3H]-thymidine incorporation (DNA biosynthesis), A375; format: cell-based, human; settings: read-out: IC50, effect on DNA biosynthesis ([3H]-thymidine incorporation)
Procedure: as §2

[13] = tested on: human skin fibroblasts (CCD25Sk); experiment: Neutral red uptake (NRU) assay, normal cells; settings: read-out: IC50, cytotoxic activity, NRU assay; Normal cells (fibroblasts), 48 h
Procedure: as §1

[14] = Homo sapiens, C32, 24 h, read-out: IC50, cytotoxic activity, NRU assay, C32, 24 h
[15] = Homo sapiens, C32, 48 h, read-out: IC50, cytotoxic activity, NRU assay, C32, 48 h
[16] = Homo sapiens, C32, 72 h, read-out: IC50, cytotoxic activity, NRU assay, C32, 72 h
[17] = A-375, 24 h, read-out: IC50, cytotoxic activity, MTT test, A375, 24 h
[18] = A-375, 48 h, read-out: IC50, cytotoxic activity, MTT test, A375, 48 h
[19] = A-375, 72 h, read-out: IC50, cytotoxic activity, MTT test, A375, 72 h

Row | Structure (SMILES) | IC50 at 24 h [3] | IC50 at 48 h [3] | IC50 at 72 h [3] | IC50 at 24 h [5] | IC50 at 48 h [5] | IC50 at 72 h [5] | IC50 [1, 14] | IC50 [1, 15] | IC50 [1, 16] | IC50 ([2]; Homo sapiens, A-375, 24 h) | IC50 ([2]; Homo sapiens, A-375, 48 h) | IC50 ([2]; Homo sapiens, A-375, 72 h) | IC50 ([4]; C32, 24 h) | IC50 ([4]; C32, 48 h) | IC50 ([4]; C32, 72 h) | IC50 [6, 17] | IC50 [6, 18] | IC50 [6, 19] | IC50 at 24 h [7] | IC50 at 48 h [7] | further results
1 | O=c1cc(-c2ccccc2)oc2cc(O)cc(O)c12 [Compound 14, chrysin] | > 200 µM | > 200 µM | 71.2 ± 4.5 µM | 100 to 200 µM | 65.7 ± 4.2 µM | 76.3 ± 4.7 µM | 89.2 ± 7.8 µM | 44.7 ± 3.9 µM | 25.6 ± 2.4 µM | 52.4 ± 3.5 µM | 34.5 ± 2.3 µM | 33.1 ± 2.8 µM | 100 to 200 µM | 96.4 ± 7 µM | 58.9 ± 4.5 µM | 100 to 200 µM | 66.4 ± 4.5 µM | 34.4 ± 2.8 µM | – | – | –
2 | O=C(O)C1OC(Oc2c(-c3ccc(O)cc3)oc3cc(O)cc(O)c3c2=O)C(O)C(O)C1O (centres unmarked) [Compound 21, kaempferol 3-O-glucuronide] | > 200 µM | > 200 µM | > 200 µM | > 200 µM | > 200 µM | > 200 µM | > 200 µM | > 200 µM | > 200 µM | > 200 µM | > 200 µM | > 200 µM | > 200 µM | > 200 µM | > 200 µM | > 200 µM | > 200 µM | > 200 µM | – | – | –
3 | COc1ccc(-c2oc3c(CC=C(C)C)c(O[C@@H]4O[C@H](CO)[C@@H](O)[C@H](O)[C@H]4O)cc(O)c3c(=O)c2O[C@@H]2O[C@@H](C)[C@H](O)[C@@H](O)[C@H]2O)cc1 [Compound 23, icariin] | > 200 µM | > 200 µM | > 200 µM | > 200 µM | > 200 µM | > 200 µM | > 200 µM | > 200 µM | > 200 µM | > 200 µM | > 200 µM | > 200 µM | > 200 µM | > 200 µM | > 200 µM | > 200 µM | > 200 µM | > 200 µM | – | – | –
4 | O=c1c(O)c(-c2cc(O)c(O)c(O)c2)oc2cc(O)cc(O)c12 [Compound 30, myricetin] | > 200 µM | > 200 µM | > 200 µM | > 200 µM | > 200 µM | > 200 µM | > 200 µM | > 200 µM | > 200 µM | > 200 µM | > 200 µM | > 200 µM | > 200 µM | > 200 µM | > 200 µM | > 200 µM | > 200 µM | 75.3 ± 4.8 µM | – | – | –
5 | COc1ccc([C@@H]2CC(=O)c3c(O)cc(O)cc3O2)cc1O [Compound 33, hesperetin] | > 200 µM | > 200 µM | > 200 µM | > 200 µM | > 200 µM | 100 to 200 µM | 69 ± 5.1 µM | 58.3 ± 5.6 µM | 53.7 ± 4 µM | 100 to 200 µM | 100 to 200 µM | 100 to 200 µM | > 200 µM | 100 to 200 µM | 76.5 ± 6.3 µM | 100 to 200 µM | 100 to 200 µM | 74.5 ± 6.4 µM | – | – | –
6 | COc1ccc(C2CC(=O)c3c(O)cc(OC4OC(COC5OC(C)C(O)C(O)C5O)C(O)C(O)C4O)cc3O2)cc1O (centres unmarked) [Compound 34, hesperetin 7-O-rutinoside] | – | – | – | > 200 µM | > 200 µM | > 200 µM | > 200 µM | > 200 µM | > 200 µM | > 200 µM | > 200 µM | > 200 µM | > 200 µM | > 200 µM | > 200 µM | > 200 µM | > 200 µM | > 200 µM | > 200 µM | > 200 µM | IC50 at 72 h [7]: > 200 µM
7 | N.N.[Cl][Pt][Cl] [cPt, cisplatin, reference compound] | – | – | – | – | – | – | – | – | – | – | – | – | – | – | – | – | – | – | – | – | IC50 ([1]; read-out: IC50, cytotoxic activity, NRU assay, C32, 72 h): 13.8 ± 1.5 µM; cleaved PARP and caspase-9 [8]: generated cleaved PARP and caspase-9; phosphorylation of RSK [8]: inhibited; IC50 ([2]; A375, 72 h): 9.9 ± 1.1 µM; IC50 ([9]; 24 h): 7.1 ± 0.9 µM; IC50 ([9]; 48 h): 6.1 ± 0.5 µM; IC50 ([9]; 72 h): 6.1 ± 0.8 µM; IC50 ([10]; C32, 24 h): 6.8 ± 0.4 µM; IC50 ([10]; C32, 48 h): 5.7 ± 0.3 µM; IC50 ([10]; C32, 72 h): 4.4 ± 0.4 µM; cleavage of initiator caspases, caspase-9 and caspase-8 [11]: cleavage of both initiator caspases; levels of the caspases-3 and -7 zymogens [11]: decreased levels; phosphorylation of the RSK protein [11]: impaired; IC50 ([12]; A375, 24 h): 3.8 ± 0.2 µM; IC50 ([12]; A375, 48 h): 3.9 ± 0.5 µM; IC50 ([12]; A375, 72 h): 3.4 ± 0.3 µM; IC50 [13]: 47.5 ± 4.9 µM
8 | O=c1cc(-c2ccc(O)cc2)oc2c([C@@H]3O[C@H](CO)[C@@H](O)[C@H](O)[C@H]3O)c(O)cc(O)c12 [Compound 2, apigenin 8-C-glucoside] | – | – | – | > 200 µM | > 200 µM | > 200 µM | > 200 µM | > 200 µM | > 200 µM | > 200 µM | > 200 µM | > 200 µM | > 200 µM | > 200 µM | > 200 µM | > 200 µM | > 200 µM | > 200 µM | > 200 µM | > 200 µM | IC50 at 72 h [7]: > 200 µM

More lines, main results first:

Row | IC50 at 24 h [3] | IC50 at 48 h [3] | IC50 at 72 h [3] | IC50 at 24 h [5] | IC50 at 48 h [5] | IC50 at 72 h [5] | Structure (SMILES) | IC50 [1, 14] | IC50 [1, 15] | IC50 [1, 16] | IC50 ([2]; Homo sapiens, A-375, 24 h) | IC50 ([2]; Homo sapiens, A-375, 48 h) | IC50 ([2]; Homo sapiens, A-375, 72 h) | IC50 ([4]; C32, 24 h) | IC50 ([4]; C32, 48 h) | IC50 ([4]; C32, 72 h) | IC50 [6, 17] | IC50 [6, 18] | IC50 [6, 19] | IC50 at 24 h [7] | IC50 at 48 h [7] | further results
9 | > 200 µM | > 200 µM | > 200 µM | > 200 µM | > 200 µM | > 200 µM | O=C(O)C1OC(Oc2cc(O)c3c(=O)cc(-c4ccc(O)c(O)c4)oc3c2)C(O)C(O)C1O (centres unmarked) [Compound 8, luteolin 7-O-glucuronide] | > 200 µM | > 200 µM | > 200 µM | > 200 µM | > 200 µM | > 200 µM | > 200 µM | > 200 µM | > 200 µM | > 200 µM | > 200 µM | > 200 µM | – | – | –
10 | > 200 µM | > 200 µM | > 200 µM | > 200 µM | 100 to 200 µM | 100 to 200 µM | O=c1cc(-c2ccc(O)c(O)c2)oc2cc(OC3OC(CO)C(O)C(O)C3O)cc(O)c12 (centres unmarked) [Compound 7, luteolin 7-O-glucoside] | > 200 µM | 29.6 ± 2 µM | 23 ± 2.1 µM | > 200 µM | 56.7 ± 3.8 µM | 41.5 ± 3.3 µM | > 200 µM | 60.5 ± 4.6 µM | 40.7 ± 2.9 µM | > 200 µM | > 200 µM | 37.1 ± 3 µM | – | – | –
11 | – | – | – | > 200 µM | > 200 µM | > 200 µM | CC1OC(OCC2OC(Oc3cc(O)c4c(=O)cc(-c5ccc(O)cc5)oc4c3)C(O)C(O)C2O)C(O)C(O)C1O (centres unmarked) [Compound 5, apigenin 7-O-rutinoside] | > 200 µM | > 200 µM | > 200 µM | > 200 µM | > 200 µM | > 200 µM | > 200 µM | > 200 µM | > 200 µM | > 200 µM | > 200 µM | > 200 µM | > 200 µM | > 200 µM | IC50 at 72 h [7]: > 200 µM
12 | – | – | – | > 200 µM | > 200 µM | > 200 µM | O=c1c(O[C@@H]2O[C@H](CO)[C@@H](O)[C@H](O)[C@H]2O)c(-c2ccc(O)cc2)oc2cc(O)cc(O)c12 [Compound 20, kaempferol 3-O-glucoside] | > 200 µM | > 200 µM | > 200 µM | > 200 µM | > 200 µM | > 200 µM | > 200 µM | > 200 µM | > 200 µM | 94.2 ± 6.9 µM | 46.9 ± 3.5 µM | 21.5 ± 2.2 µM | > 200 µM | > 200 µM | IC50 at 72 h [7]: > 200 µM
